In patent US7786161B2, “Carboxylic acid derivatives and pharmaceutical agent comprising the same as active ingredient” (ONO Pharmaceutical Co., Ltd., priority 2001, dated 2010) one finds Ki data, which are given here for one molecule.

Common to all, as to test: Receptor-binding experiment using cells expressing prostanoid receptor subtypes (3H-PGE2 binding, CHO cell membrane)
Assay [1] addresses T1, EP1 receptor (Mus musculus, UniProt P35375).
T1 construct: expressed in transfected cells; host or cells: CHO cells
T1 sequence (P35375 1-405): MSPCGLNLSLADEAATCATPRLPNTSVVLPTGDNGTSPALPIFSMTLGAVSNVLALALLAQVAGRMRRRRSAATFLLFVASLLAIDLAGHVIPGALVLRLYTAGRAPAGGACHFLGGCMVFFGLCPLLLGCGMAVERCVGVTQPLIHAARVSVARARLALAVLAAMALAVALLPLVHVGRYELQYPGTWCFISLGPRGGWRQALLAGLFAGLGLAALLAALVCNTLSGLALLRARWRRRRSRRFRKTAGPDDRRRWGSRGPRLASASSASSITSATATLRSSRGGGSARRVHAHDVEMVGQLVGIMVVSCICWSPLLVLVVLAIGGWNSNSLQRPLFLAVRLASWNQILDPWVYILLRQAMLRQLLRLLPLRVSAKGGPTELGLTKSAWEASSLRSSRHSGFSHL
The note with it: 3H-PGE2 (2.5 nM) binding inhibition, membrane of CHO cells expressing mouse EP1; Ki=IC50/(1+([C]/Kd)). As for the experimental part:
(§1) The pharmacological activity is confirmed by the following receptor-binding experiment by using cells expressing prostanoid receptor subtypes. • (i) Receptor-binding experiment by using cells expressing prostanoid receptor subtypes In accordance with the method of Sugimoto et al. [J. Biol. Chem., 267, 6463-6466 (1992)], CHO cells respectively expressing prostanoid receptor subtypes (mouse EP1, EP2, EP3, and EP4) were prepared to give membrane preparations.
(§2) Each membrane fraction (50 μl) thus prepared and a reaction solution (150 μl) containing ^3H-PGE2 were incubated at room temperature for 1 hour. After ceasing the reaction with an ice-cooled buffer (3 ml), the bound ^3H-PGE2 was trapped in a glass filter (GF/B) by filtering with suction under reduced pressure. Then the bound radioactivity was measured with a liquid scintillator.
(§3) Kd value and Bmax value were determined by Scatchard plots [Ann. N.Y. Acad. Sci., 51, 660 (1949)]. Nonspecific bond was determined as bond in the presence of unlabeled PGE2 in excess (2.5 μM). The ^3H-PGE2-binding inhibitory effects of the invention compounds were measured by adding ^3H-PGE2 (2.5 nM) and the invention compounds at various concentrations. In every reaction, the following buffer was employed.
(§4) Buffer: potassium phosphate (10 mM, pH 6.0), EDTA (1 mM), MgCl2 (10 mM), NaCl (0.1 M).
(§5) The dissociation constant Ki (μM) of each compound was determined in accordance with the following formula. […] Ki=IC50/(1+([C]/Kd))

For assay [2], the target named is T2, EP2 receptor (Mus musculus, UniProt Q62053).
T2 construct: expressed in transfected cells; host or cells: CHO cells
T2 sequence (Q62053 whole entry): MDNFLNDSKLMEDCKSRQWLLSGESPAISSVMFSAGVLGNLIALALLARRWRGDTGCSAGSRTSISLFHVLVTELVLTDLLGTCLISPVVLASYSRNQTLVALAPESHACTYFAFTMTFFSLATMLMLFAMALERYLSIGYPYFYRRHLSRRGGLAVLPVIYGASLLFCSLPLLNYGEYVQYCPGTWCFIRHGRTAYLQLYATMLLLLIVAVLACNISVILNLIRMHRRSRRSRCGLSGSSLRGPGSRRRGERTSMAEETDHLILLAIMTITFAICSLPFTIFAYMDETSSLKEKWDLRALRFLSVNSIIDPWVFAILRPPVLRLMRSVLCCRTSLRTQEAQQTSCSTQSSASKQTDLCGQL
The note with it: 3H-PGE2 (2.5 nM) binding inhibition, membrane of CHO cells expressing mouse EP2; Ki=IC50/(1+([C]/Kd)). As for the experimental part:
as §1, §2, §3, §4, §5

The target in assay [3] is T3, EP3 receptor (Mus musculus, UniProt P30557).
T3 construct: expressed in transfected cells; host or cells: CHO cells
T3 sequence (P30557 1-365): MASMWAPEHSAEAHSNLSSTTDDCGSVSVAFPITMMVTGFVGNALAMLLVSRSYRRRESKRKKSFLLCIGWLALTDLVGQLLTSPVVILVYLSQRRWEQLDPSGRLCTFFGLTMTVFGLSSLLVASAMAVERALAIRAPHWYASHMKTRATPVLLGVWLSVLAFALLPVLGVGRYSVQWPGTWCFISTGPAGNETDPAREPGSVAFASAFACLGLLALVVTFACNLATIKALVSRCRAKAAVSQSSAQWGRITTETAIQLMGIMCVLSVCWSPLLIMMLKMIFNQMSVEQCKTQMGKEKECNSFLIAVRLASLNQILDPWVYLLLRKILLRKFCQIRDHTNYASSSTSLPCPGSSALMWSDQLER
The note with it: 3H-PGE2 (2.5 nM) binding inhibition, membrane of CHO cells expressing mouse EP3; Ki=IC50/(1+([C]/Kd)). As for the experimental part: as §1, §2, §3, §4, §5

The target in assay [4] is T4, EP4 receptor (Mus musculus, UniProt P32240).
T4 construct: expressed in transfected cells; host or cells: CHO cells
T4 sequence (P32240 whole entry): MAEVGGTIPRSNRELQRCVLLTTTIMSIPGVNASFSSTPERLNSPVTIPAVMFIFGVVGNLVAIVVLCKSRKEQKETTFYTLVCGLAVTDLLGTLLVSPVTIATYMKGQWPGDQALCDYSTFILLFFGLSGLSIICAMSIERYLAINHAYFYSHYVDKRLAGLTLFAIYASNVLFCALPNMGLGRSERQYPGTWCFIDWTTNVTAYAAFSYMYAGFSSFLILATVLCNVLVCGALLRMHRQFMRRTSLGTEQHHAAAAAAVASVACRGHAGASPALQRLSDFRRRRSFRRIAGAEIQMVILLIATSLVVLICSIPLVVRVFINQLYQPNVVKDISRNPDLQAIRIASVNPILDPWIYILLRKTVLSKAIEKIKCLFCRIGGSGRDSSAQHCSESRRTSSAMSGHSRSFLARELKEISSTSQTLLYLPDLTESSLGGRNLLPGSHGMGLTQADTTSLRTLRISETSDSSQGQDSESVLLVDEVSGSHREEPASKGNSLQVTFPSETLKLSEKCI
The note with it: 3H-PGE2 (2.5 nM) binding inhibition, membrane of CHO cells expressing mouse EP4; Ki=IC50/(1+([C]/Kd)). As for the experimental part:
as §1, §2, §3, §4, §5

For orientation: Ki means a dissociation constant, usually derived from enzyme kinetics or from competition with a known ligand. A higher Ki goes with weaker binding. With `CSCc1ccc(CCCC(=O)O)c(NC(=O)C(C)c2cccc3ccccc23)c1` (stereo not shown) [Example 8(13), 4-(2-((2-(naphthalen-1-yl)propanoyl)amino)-4-methylthiomethylphenyl)butanoic acid], the Ki was above 10000 nM in assay [1], above 10000 nM in assay [2], 270 nM in assay [3] and 38 nM in assay [4].
